Test results reported in patent US11001563B2, “SSAO inhibitor” (SHANDONG DANHONG PHARMACEUTICAL CO., LTD., priority 2017, dated 2021).
pIC50: −log10 of the molar value.

Tests used:
[1] = Distribution of compounds in liver and blood of CD-1 mice; type: in vivo; settings: single oral dose
Procedure: Experimental purpose: distribution of compounds in liver and blood of CD-1 mice was tested;
CD-1 Mice (male, 25-35 g, 6-9 weeks old, Shanghai Slack);
Experimental procedure: after oral administration, the drug was distributed in the liver and blood of rodents, candidate compounds in the experiment were formulated into a clear solution to be administered to mice in a single oral dose. The oral solvent was a certain proportion of an aqueous solution of hydroxypropyl P-cyclodextrin or a physiological saline solution. The concentration of the drug in the liver and blood was measured at 1 hour and 4 hours after administration.

CYP1A2 = CYP1A2 (Homo sapiens (Human), UniProt P05177); experiment: Human liver microsomal CYP inhibition assay; type: in vitro ADME; settings: human liver microsomes, 5-in-1 probe substrate
Chain of CYP1A2 (P05177 whole entry): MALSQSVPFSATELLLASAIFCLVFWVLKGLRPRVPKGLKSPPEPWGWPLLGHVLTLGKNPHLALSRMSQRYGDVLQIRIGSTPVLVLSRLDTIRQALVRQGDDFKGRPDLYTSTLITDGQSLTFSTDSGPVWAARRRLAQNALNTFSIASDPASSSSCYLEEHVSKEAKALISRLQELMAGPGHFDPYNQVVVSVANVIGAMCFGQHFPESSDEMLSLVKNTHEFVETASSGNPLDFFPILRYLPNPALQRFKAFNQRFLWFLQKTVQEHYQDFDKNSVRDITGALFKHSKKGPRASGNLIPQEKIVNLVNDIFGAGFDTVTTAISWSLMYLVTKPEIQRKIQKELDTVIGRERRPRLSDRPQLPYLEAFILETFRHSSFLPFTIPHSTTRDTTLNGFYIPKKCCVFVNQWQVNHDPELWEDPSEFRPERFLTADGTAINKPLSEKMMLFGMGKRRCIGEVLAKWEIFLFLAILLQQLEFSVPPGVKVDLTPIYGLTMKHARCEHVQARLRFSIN
Procedure: (§1) The purpose of the study was to evaluate the inhibition of the test sample on human liver microsomal cytochrome P450 isozymes (CYP1A2, CYP2C9, CYP2C19, CYP2D6, and CYP3A4) by using the CYP isozyme 5-in-1 probe substrate.
(§2) Mixed human liver microsomes (HLM) were purchased from Corning Inc. (Steuben, N.Y., USA) or XenoTech, LLC. (Lenexa, Kans., USA) or other suppliers, and stored at the temperature below −70° C. prior to use.
(§3) A series of diluted test sample working solution were added to an incubation system containing cofactors of human liver microsomes, a probe substrate and a circulation system, and the control without a test substance but containing a solvent was used as enzyme activity control (100%). The concentration of the metabolite produced by the probe sample in the sample was determined by liquid chromatography-tandem mass spectrometry (LC-MS/MS). Non-linear regression analysis was performed on the concentration of the average percent activity of the test sample by using SigmaPlot (V.11). The IC50 value was calculated by a three-parameter or four-parameter recursive logarithmic equation.

CYP2C19 = CYP2C19 (Homo sapiens (Human), UniProt P33261); experiment: Human liver microsomal CYP inhibition assay; type: in vitro ADME; settings: human liver microsomes, 5-in-1 probe substrate
Chain of CYP2C19 (P33261 whole entry): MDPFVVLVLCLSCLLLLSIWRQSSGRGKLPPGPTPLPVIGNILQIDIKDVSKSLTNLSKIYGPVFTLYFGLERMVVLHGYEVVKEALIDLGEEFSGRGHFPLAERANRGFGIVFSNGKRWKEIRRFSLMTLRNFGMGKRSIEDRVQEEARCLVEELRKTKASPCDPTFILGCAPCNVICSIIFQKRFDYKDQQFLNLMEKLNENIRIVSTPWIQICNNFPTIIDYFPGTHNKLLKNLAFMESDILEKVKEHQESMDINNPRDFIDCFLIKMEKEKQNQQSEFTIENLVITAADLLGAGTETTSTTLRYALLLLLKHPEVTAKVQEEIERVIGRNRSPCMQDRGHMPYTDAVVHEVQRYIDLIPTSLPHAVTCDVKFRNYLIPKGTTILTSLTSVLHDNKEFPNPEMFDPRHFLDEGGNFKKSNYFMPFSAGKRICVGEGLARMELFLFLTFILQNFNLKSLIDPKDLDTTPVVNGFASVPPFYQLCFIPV
Procedure: as §1, §2, §3

CYP2C9 = CYP2C9 (Homo sapiens (Human), UniProt P11712); experiment: Human liver microsomal CYP inhibition assay; type: in vitro ADME; settings: human liver microsomes, 5-in-1 probe substrate
Chain of CYP2C9 (P11712 whole entry): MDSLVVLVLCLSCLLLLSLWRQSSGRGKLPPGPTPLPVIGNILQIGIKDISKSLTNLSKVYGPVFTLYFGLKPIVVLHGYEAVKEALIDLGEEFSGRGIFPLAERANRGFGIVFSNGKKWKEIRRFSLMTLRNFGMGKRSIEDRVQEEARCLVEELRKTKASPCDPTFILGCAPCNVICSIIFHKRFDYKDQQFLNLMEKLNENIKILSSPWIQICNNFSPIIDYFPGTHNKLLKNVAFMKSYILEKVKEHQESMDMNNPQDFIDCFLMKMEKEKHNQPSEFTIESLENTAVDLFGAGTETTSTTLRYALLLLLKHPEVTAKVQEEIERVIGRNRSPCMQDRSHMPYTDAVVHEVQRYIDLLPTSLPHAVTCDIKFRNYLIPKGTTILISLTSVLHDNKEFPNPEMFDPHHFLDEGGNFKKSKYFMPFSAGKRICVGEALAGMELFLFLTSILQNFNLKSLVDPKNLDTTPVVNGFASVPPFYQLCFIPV
Procedure: as §1, §2, §3

CYP2D6 = CYP2D6 (Homo sapiens (Human), UniProt P10635); experiment: Human liver microsomal CYP inhibition assay; type: in vitro ADME; settings: human liver microsomes, 5-in-1 probe substrate
Chain of CYP2D6 (P10635 whole entry): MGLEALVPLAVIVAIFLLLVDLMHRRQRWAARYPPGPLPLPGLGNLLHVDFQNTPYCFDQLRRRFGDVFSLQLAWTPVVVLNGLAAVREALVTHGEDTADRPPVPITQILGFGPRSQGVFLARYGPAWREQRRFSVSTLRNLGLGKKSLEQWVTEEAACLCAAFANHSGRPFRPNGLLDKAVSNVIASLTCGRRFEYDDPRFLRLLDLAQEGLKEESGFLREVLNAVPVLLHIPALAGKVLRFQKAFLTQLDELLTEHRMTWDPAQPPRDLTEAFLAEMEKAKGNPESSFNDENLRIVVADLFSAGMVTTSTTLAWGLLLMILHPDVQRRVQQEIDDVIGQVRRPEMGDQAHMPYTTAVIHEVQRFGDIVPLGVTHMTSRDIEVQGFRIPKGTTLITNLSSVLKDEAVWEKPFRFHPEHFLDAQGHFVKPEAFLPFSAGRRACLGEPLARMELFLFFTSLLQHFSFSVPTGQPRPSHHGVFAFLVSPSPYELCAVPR
Procedure: as §1, §2, §3

CYP3A4 = CYP3A4 (Homo sapiens (Human), UniProt P08684); experiment: Human liver microsomal CYP inhibition assay; type: in vitro ADME; settings: human liver microsomes, 5-in-1 probe substrate
Chain of CYP3A4 (P08684 whole entry): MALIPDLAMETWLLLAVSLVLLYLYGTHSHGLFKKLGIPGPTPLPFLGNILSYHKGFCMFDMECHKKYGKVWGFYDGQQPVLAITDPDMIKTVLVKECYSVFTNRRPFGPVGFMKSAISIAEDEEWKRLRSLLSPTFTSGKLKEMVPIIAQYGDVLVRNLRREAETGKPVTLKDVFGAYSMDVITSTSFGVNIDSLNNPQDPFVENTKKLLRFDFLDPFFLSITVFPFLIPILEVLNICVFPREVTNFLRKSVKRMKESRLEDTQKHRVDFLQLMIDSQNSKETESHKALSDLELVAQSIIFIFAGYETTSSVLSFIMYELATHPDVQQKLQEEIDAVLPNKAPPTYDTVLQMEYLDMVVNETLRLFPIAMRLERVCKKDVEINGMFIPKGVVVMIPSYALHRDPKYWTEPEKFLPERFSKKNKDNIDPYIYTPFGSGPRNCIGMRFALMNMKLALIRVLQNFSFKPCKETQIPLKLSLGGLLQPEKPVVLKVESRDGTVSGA
Procedure: as §1, §2, §3

VAP-1/SSAO [2] = biological target: T1, VAP-1/SSAO (Homo sapiens (Human), UniProt Q16853); experiment: Human VAP-1 enzyme activity assay (Amplex Red Monoamine Oxidase kit); type: biochemical; settings: 10 nM VAP-1 enzyme, 30 min preincubation, benzylamine substrate; read-out: Human Recombinant VAP-1/SSAO Enzyme Inhibitory Activity IC50
T1 sequence (Q16853 whole entry): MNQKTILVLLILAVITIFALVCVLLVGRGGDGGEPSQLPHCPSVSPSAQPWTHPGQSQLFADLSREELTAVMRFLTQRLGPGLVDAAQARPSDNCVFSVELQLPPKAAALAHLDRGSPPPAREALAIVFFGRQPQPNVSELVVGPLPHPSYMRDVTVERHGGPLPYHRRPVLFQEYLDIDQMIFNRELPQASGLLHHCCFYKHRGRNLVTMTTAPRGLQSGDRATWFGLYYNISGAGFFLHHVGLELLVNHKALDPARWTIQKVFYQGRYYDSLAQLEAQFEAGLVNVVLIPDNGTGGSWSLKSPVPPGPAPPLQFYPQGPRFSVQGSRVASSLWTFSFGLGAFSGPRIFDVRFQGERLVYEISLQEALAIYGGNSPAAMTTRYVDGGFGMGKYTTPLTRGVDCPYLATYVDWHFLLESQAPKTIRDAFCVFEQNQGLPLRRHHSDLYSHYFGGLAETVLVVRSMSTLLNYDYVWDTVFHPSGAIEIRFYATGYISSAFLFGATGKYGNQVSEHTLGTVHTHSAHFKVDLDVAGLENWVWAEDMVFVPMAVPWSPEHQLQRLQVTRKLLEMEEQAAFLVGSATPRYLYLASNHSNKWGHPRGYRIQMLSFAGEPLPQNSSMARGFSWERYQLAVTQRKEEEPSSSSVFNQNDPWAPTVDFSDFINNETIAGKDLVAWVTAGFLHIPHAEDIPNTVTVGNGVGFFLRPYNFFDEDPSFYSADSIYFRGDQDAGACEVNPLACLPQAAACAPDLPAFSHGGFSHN
Procedure: Human VAP-1 enzyme activity assay:
The inhibition of the sample on VAP-enzyme activity was measured by using an Amplex® Red Monoamine Oxidase kit (Invitrogen #A12214). 100 nL of the gradiently-diluted to-be-tested compound (solvent DMSO) was added to a 384-well plate. 25 μL of 10 nM VAP-1 enzyme solution was added and incubated for 30 minutes at room temperature. A substrate mixture of VAP-1 enzyme (200 μM Amplex Red, 1 U/mL HRP, 1 mM Benzylamine) was added and incubated for 60 minutes at room temperature. After the incubation, the fluorescent signal was read with a microplate reader Envision (excitation light wavelength 530-560 nm, emission light wavelength 590 nm). The fluorescence signal value after the background signal was removed was analyzed by Prism software, and the IC50 of the sample against the VAP-1 enzyme was calculated.

VAP-1/SSAO [3] = biological target: T1, VAP-1/SSAO; experiment: VAP-1 cell activity assay (HUVEC or CHO cells transfected with VAP-1/pCDNA (3.1) plasmid, Amplex Red); type: cell-based; settings: HUVEC or CHO cells transfected with VAP-1 plasmid; read-out: VAP-1/SSAO Cellular Inhibitory Activity IC50
Procedure: The inhibition of the sample on VAP-1 cell activity was measured by using an Amplex® Red Monoamine Oxidase kit (Invitrogen #A12214).
The cultured HUVEC or CHO cells were plated into a 6-well plate at a density of 0.8 M/well, placed in a 37° C., 5% CO2 incubator for incubation for 24 hours, and then the cells was transferred with a Lipo2000 reagent and a VAP-1/pCDNA (3.1) plasmid, and liquid was changed for the cells after 5 hours (Lipo2000 was toxic to the cells); after 24 hours, the cells were digested and plated into 384-well plates with a density of 25 μl, 10000 cells/well, and liquid was replaced with medium without FBS for the cells after 6-7 hours, and the cell plates were incubated overnight at 37° C. in a 5% CO2 incubator.
1) Dilution of the compound: serial dilution in 4× gradient was carried out with 100% DMSO, 10 points were diluted, the starting concentration of the to-be-tested compound was 0.5 mM (final concentration was 1 μM); 100 nl of compound solution was transferred to a 384-well cell assay plate with ECHO. Negative control wells: 100 nl of DMSO; background control wells: 100 nl DMSO+25 μL medium.
2) The reaction was carried out in the dark at room temperature for 30 min.
3) Preparation of Amplex Red reagent+HRP+benzylamine substrate working solution: Amplex Red reagent+HRP+benzylamine substrate working solution (200 μM Amplex Red reagent+1 U/mL HRP+1 mM benzylamine): 45 μl of 20 mM Amplex Red reagent mother solution, 22.5 μl of 200 U/ml horseradish peroxidase (HRP) mother solution and 45 ul of 100 mM benzylamine were tanken and added to 4.3875 ml of 1× reaction buffer.
4) After 30 min, 25 μl of the substrate working solution was added to a 384-well plate, and a final concentration was 100 μM Amplex Red reagent+0.5 U/mL HRP+0.5 mM benzylamine, respectively.
5) The reaction was carried out in the dark at room temperature for 60 minutes, and the fluorescence value was measured by Envision: the excitation wave was 535 nm, and the emission wave was 590 nm.
6) Inhibition rate calculation formula: % inhibition rate=(1−(test hole minus background−positive control well minus background)/(negative control well minus background-positive control well minus background))*100
7) The data were analyzed with Prism. The IC50 of the sample against VAP-1 cells was calculated.

hERG potassium channel = hERG potassium channel (Homo sapiens (Human), UniProt Q12809); experiment: Inhibition test of hERG potassium ion channel (automatic patch clamp, CHO-hERG cells); type: cell-based
Chain of hERG potassium channel (Q12809 whole entry): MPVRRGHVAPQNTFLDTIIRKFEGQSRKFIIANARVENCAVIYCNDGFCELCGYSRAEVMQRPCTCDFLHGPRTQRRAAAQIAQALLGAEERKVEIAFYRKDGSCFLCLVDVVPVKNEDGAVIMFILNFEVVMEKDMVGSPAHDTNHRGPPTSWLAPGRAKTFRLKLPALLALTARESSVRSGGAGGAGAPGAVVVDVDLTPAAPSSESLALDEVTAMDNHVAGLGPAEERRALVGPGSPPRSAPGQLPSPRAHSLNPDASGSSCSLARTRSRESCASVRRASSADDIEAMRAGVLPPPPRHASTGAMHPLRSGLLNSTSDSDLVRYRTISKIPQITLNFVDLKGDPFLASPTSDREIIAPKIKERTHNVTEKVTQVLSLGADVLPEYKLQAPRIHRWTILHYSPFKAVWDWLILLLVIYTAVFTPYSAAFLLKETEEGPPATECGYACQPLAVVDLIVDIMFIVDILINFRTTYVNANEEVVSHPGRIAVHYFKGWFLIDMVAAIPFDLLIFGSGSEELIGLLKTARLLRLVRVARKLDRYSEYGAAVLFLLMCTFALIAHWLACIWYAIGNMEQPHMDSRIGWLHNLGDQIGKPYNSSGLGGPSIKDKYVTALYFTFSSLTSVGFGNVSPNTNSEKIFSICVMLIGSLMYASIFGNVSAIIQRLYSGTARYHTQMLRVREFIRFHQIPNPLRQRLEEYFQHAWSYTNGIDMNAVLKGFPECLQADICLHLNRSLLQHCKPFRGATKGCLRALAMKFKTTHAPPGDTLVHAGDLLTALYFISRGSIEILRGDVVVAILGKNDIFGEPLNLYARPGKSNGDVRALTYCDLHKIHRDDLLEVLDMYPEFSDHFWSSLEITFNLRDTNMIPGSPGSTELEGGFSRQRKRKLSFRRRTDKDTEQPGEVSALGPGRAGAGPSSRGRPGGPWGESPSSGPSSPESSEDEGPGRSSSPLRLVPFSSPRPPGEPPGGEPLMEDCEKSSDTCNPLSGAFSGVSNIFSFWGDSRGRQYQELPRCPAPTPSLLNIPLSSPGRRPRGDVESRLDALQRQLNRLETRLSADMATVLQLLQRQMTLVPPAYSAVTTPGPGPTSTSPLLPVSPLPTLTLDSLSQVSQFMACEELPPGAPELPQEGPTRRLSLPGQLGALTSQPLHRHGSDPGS
Procedure: The effect of the to-be-tested compound on the potassium ion channel of hERG was detected by a fully automatic patch clamp method.
The cells stably expressing hERG potassium channel used in the experiment were obtained from CHO-hERE of Aviva Biosciences, and CHO-hERG was cultured in 5% CO2 at 37° C.
CHO-hERG cells prepared for the experiment were cultured for at least two days, and the cell density reached 75% or more. Prior to the start of the experiment, cells were digested with TrypLE and then resuspended in extracellular fluid to collect the cells.
The to-be-tested compound and the positive control Amitriptyline were dissolved in DMSO to a certain concentration of the stock solution, and then diluted according to different gradients, and finally added to the extracellular fluid in a certain ratio, and diluted to a concentration to be measured. Visual inspection was performed to see if there was any precipitation before the start of the experiment. Finally, the concentration of DMSO in the to-be-tested solution and the positive control Amitriptyline should not exceed 0.3%.
The clamping potential was kept at −80 mv, first a voltage stimulation of −50 mv was given for 80 ms to record the cell leakage current value, and then was depolarized to +20 mv to be maintained for 4800 ms, the channel of hERG was open, and then repolarized to −50 mv to be maintained 5000 ms, hERG tail current was led out and recorded, and finally, the voltage was returned to the clamping potential of −80 mv to be maintained for 3100 ms. The above voltage stimulation was repeated once every 15000 ms.
hERG QPatch^HTX experiment was performed at room temperature. A whole cell protocol, a voltage stimulation protocol and a compound detection protocol were established on the software of QPatch Assay Software 5.2 (Sophion Bioscience).
First, 30 repeated set voltage stimulations were performed, which was the baseline area for subsequent analysis, followed by the addition of 5 μl of extracellular fluid, repeated for three times. The concentration of each compound added in sequence was repeated three times in a volume of 5 μl. The cells were incubated for at least 5 min at each test concentration. During the entire recording process, the indicators needed to meet the data analysis acceptance criteria. If the standard was not met, the cells would not be included in the analysis scope, and the compounds would be retested. The above recording process was automatically operated by Qpatch analysis software. […]
In each complete current record, based on the percentage of peak current in the negative control, the percent inhibition of the concentration of each compound can be calculated. […]

Row | SMILES | Liver Concentration ([1]; @1.0 hour) | Liver Concentration/Plasma Concentration ratio ([1]; @1.0 hour) | Plasma Concentration ([1]; @1.0 hour) | Liver Concentration ([1]; @4.0 hour) | Liver Concentration/Plasma Concentration ratio ([1]; @4.0 hour) | Plasma Concentration ([1]; @4.0 hour) | pIC50 (CYP1A2) | pIC50 (CYP2C19) | pIC50 (CYP2C9) | pIC50 (CYP2D6) | pIC50 (CYP3A4) | pIC50 (VAP-1/SSAO [2]) | pIC50 (VAP-1/SSAO [3]) | pIC50 (hERG potassium channel; QPatch whole cell patch clamp, CHO-hERG, 0.24-30.00 μM) | Inhibition of hERG potassium current (in words) (hERG potassium channel; conclusion statement)
1 | CC(C)(C)NC(=O)c1ccc(OC/C(=C/F)CN)cc1.Cl [PXS-4728A, reference compound] | 13140 | 10 | 1470 | 2120 | 14 | 154 | 5.05 | 4.12 | 4.49 | 4.42 | < 4.30 | – | – | – | –
2 | Cc1noc(-c2ccc(OC/C(=C/F)CN)cc2)n1.Cl [WX008] | – | – | – | – | – | – | – | – | – | – | – | 9.40 | 9.52 | < 4.52 | weak inhibition
3 | CCn1nc(C2(F)CC2)nc1-c1ccc(OC/C(=C/F)CN)cc1 [WX118] | – | – | – | – | – | – | – | – | – | – | – | 9.15 | 9.15 | – | –
